The source made the active and inactive calls. No cut-off for these calls is given here.
Key:
Ovis aries [1] = organism: Ovis aries; test: Binding affinity to lamb brain tubulin after 15 mins by fluorimetric titration method
Ovis aries [2] = organism: Ovis aries; test: Induction of abnormal lamb brain tubulin polymer formation at 50 uM after 10 mins by turbidimetry
A549 [3] = test: Cytotoxicity against human A549 cells assessed as growth inhibition after 72 hrs by MTT assay; type: functional, cell-based; conditions: A549, 72 h
[4] = Inhibition of lamb brain tubulin self assembly assessed as decrease in microtubule formation after 10 mins by turbidimetry/spectrometry; design: species or system Ovis aries
[5] = Selectivity index, ratio of IC50 for HEK293 cells to IC50 for human A549 cells; type: functional
MCF7 = test: Cytotoxicity against human MCF7 cells assessed as growth inhibition after 72 hrs by MTT assay; type: functional, cell-based; conditions: MCF7, 72 h
[6] = Selectivity index, ratio of IC50 for HEK293 cells to IC50 for human HT-29 cells; type: functional
HT-29 = test: Cytotoxicity against human HT-29 cells assessed as growth inhibition after 72 hrs by MTT assay; type: functional, cell-based; conditions: HT-29, 72 h
[7] = Selectivity index, ratio of IC50 for HEK293 cells to IC50 for human MCF7 cells; type: functional
Ovis aries [8] = organism: Ovis aries; test: Inhibition of lamb brain tubulin self assembly assessed as decrease in microtubule formation at 10 uM after 10 mins by turbidimetry/spectrometry
Ovis aries [9] = organism: Ovis aries; test: Induction of abnormal lamb brain tubulin polymer formation at 50 uM by uranyl acetate staining-based transmission electron microscopy
HEK293 = test: Cytotoxicity against HEK293 cells assessed as growth inhibition after 72 hrs by MTT assay; type: cell-based; conditions: Homo sapiens, HEK293, 72 h
A549 [10] = test: Cell cycle arrest in human A549 cells assessed as accumulation at G2/M phase at IC50 after 24 hrs by propidium iodide staining-based flow cytometric method; type: functional
A549 [11] = test: Induction of microtubule depolymerization in human A549 cells at 100 nM after 4 hrs by immunofluorescence microscopic method; type: cell-based
Ovis aries [12] = organism: Ovis aries; test: Induction of abnormal lamb brain tubulin polymer formation at 10 uM after 10 mins by turbidimetry
Ovis aries [13] = organism: Ovis aries; test: Binding affinity to lamb brain tubulin-colchicine complex at 20 uM by fluorimetric titration method
Ovis aries [14] = organism: Ovis aries; test: Inhibition of lamb brain tubulin self assembly assessed as decrease in microtubule formation at 0.1 uM by uranyl acetate staining-based transmission electron microscopy
Ovis aries [15] = organism: Ovis aries; test: Binding affinity to lamb brain tubulin at 10 uM by fluorimetric titration method

Structure (SMILES)	Kapp (Ovis aries [1]) [×10⁴ /M]	Activity (Ovis aries [2])	IC50 (A549 [3]) [nM]	IC50 [4] [nM]	Ratio IC50 [5]	IC50 (MCF7) [nM]	Ratio IC50 [6]	IC50 (HT-29) [nM]	Ratio IC50 [7]	inhibition (Ovis aries [8])	Activity (Ovis aries [9])	IC50 (HEK293) [nM]	Activity (A549 [10]) [%]	Activity (A549 [11])	Activity (Ovis aries [12])	Activity (Ovis aries [13])	inhibition (Ovis aries [14])	Activity (Ovis aries [15])
CCCCCCCC(=O)N[C@H]1CCc2cc(OC)c(OC)c(OC)c2-c2ccc(OC)c(=O)cc21	5.2	Active	133	1080	0.14	23	11.2	1.69	0.8	80%	Active	18.9	–	–	–	–	–	–
COc1cc2c(c(OC)c1OC)-c1ccc(OC)c(=O)cc1[C@@H](NC(C)=O)CC2 [COLCHICINE]	–	–	14	–	–	–	–	–	–	–	–	–	8	Active	–	–	–	–
CCCCCCCCCCCCCCCC(=O)N[C@H]1CCc2cc(OC)c(OC)c(OC)c2-c2ccc(OC)c(=O)cc21	–	–	–	–	–	720	1.3	184	0.3	–	–	244	–	–	–	–	–	–
CCCCCCCCCCCCCCCCCC(=O)N[C@H]1CCc2cc(OC)c(OC)c(OC)c2-c2ccc(OC)c(=O)cc21	–	–	–	–	–	120	0.8	1010	6.4	–	–	766	–	–	–	–	–	–
CCCCCCCCCCCCCC(=O)N[C@H]1CCc2cc(OC)c(OC)c(OC)c2-c2ccc(OC)c(=O)cc21	–	–	–	–	–	20	1.3	36	2.3	–	–	46	–	–	–	–	–	–
CCCCCCCCCCC(=O)N[C@H]1CCc2cc(OC)c(OC)c(OC)c2-c2ccc(OC)c(=O)cc21	18.4	Active	62	790	<0.1	1.77	4.2	0.041	0.1	–	–	0.17	41	–	Active	–	–	–
CCCCCCCCCCCCC(=O)N[C@H]1CCc2cc(OC)c(OC)c(OC)c2-c2ccc(OC)c(=O)cc21	–	–	–	–	–	6.8	0.2	7	0.2	–	–	1.5	–	–	–	–	–	–
CCCCCCCCCC(=O)N[C@H]1CCc2cc(OC)c(OC)c(OC)c2-c2ccc(OC)c(=O)cc21	17.9	Active	25	700	<0.1	29	1.7	0.143	<0.1	–	–	0.242	–	Active	Active	inactive	Active	Active
CCCC(=O)N[C@H]1CCc2cc(OC)c(OC)c(OC)c2-c2ccc(OC)c(=O)cc21	–	–	–	–	–	13	1.4	10	1	–	–	13.5	–	–	–	–	–	–
CCCCCCCCCCCC(=O)N[C@H]1CCc2cc(OC)c(OC)c(OC)c2-c2ccc(OC)c(=O)cc21	19	Active	71.9	1210	<0.1	0.53	0.9	0.27	0.4	–	Active	0.23	–	–	Active	–	–	–
CCCCCC(=O)N[C@H]1CCc2cc(OC)c(OC)c(OC)c2-c2ccc(OC)c(=O)cc21	6.4	Active	18	2060	0.39	7.02	2.1	3.37	1	Active	–	7.1	–	Active	–	–	–	–

From ChEMBL document CHEMBL3997771 (Eur J Med Chem, 2017)
